# Experimental data: PubChem BioAssay AID1745844 (Carcinogenic Potency Database (CPDB), 2022)
# Calls of active or inactive are those of the source. The rule behind the calls is not given here.
# Test system: rodent lifetime carcinogenesis bioassay, tumor incidence TD50
# Assay: carcinogenic potency in animals, long-term in vivo studies, CPDB compilation (AID 1745844)
# Conditions: in feed
compound,measurement,setting,value
O=CNNc1nc(-c2ccc([N+](=O)[O-])o2)cs1,TD50,"hamster, strain Syrian Golden, males, site: forestomach, lesion: squamous-cell papilloma, dosed 48 weeks, study length 70 weeks",25.1 mg/kg/day
same,TD50,"hamster, strain Syrian Golden, males, site: urinary bladder, lesion: transitional-cell carcinoma, dosed 48 weeks, study length 70 weeks",16.6 mg/kg/day
same,TD50,"mouse, strain Swiss, females, site: all sites, lesion: leukemia, dosed 33 weeks, study length 52 weeks",25.6 mg/kg/day
same,TD50,"mouse, strain Swiss, females, site: all sites, lesion: lymphocytic leukemia, dosed 33 weeks, study length 52 weeks",11.4 mg/kg/day
same,TD50,"mouse, strain Swiss, females, site: any site (literature study), lesion: several types, types named in the paper, dosed 33 weeks, study length 52 weeks",2.42 mg/kg/day
same,TD50,"mouse, strain Swiss, females, site: forestomach, lesion: papilloma, dosed 33 weeks, study length 52 weeks",13.8 mg/kg/day
same,TD50,"mouse, strain Swiss, females, site: forestomach, lesion: squamous-cell papilloma, dosed 33 weeks, study length 52 weeks",8.85 mg/kg/day
same,TD50,"mouse, strain Swiss, females, site: lung, lesion: alveolar-cell carcinoma, dosed 33 weeks, study length 52 weeks",67.1 mg/kg/day
same,TD50,"rat, strain Buffalo, females, site: kidney, lesion: several types, types named in the paper, dosed 46 weeks, study length 64 weeks",17.5 mg/kg/day
same,TD50,"rat, strain Buffalo, females, site: kidney, lesion: tubular adenoma, dosed 46 weeks, study length 64 weeks",98.6 mg/kg/day
same,TD50,"rat, strain Buffalo, females, site: kidney, lesion: tubular-cell adenocarcinoma, dosed 46 weeks, study length 64 weeks",44.1 mg/kg/day
same,TD50,"rat, strain Buffalo, females, site: liver, lesion: cystadenoma, dosed 46 weeks, study length 64 weeks",39.1 mg/kg/day
same,TD50,"rat, strain Buffalo, females, site: mammary gland, lesion: adenocarcinoma, dosed 46 weeks, study length 64 weeks",13.1 mg/kg/day
same,TD50,"rat, strain Buffalo, females, site: mammary gland, lesion: adenofibroma, dosed 46 weeks, study length 64 weeks",80.5 mg/kg/day
same,TD50,"rat, strain Buffalo, females, site: mammary gland, lesion: several types, types named in the paper, dosed 46 weeks, study length 64 weeks",5.54 mg/kg/day
same,TD50,"rat, strain Holtzman albino (Sprague-Dawley derived), females, site: cecum, lesion: adenocarcinoma, dosed 44 weeks, study length 60 weeks",210 mg/kg/day
same,TD50,"rat, strain Holtzman albino (Sprague-Dawley derived), females, site: ear canal, lesion: squamous-cell carcinoma, dosed 44 weeks, study length 60 weeks",100 mg/kg/day
same,TD50,"rat, strain Holtzman albino (Sprague-Dawley derived), females, site: kidney, lesion: adenoma, dosed 44 weeks, study length 60 weeks",17.6 mg/kg/day
same,TD50,"rat, strain Holtzman albino (Sprague-Dawley derived), females, site: kidney, lesion: carcinoma, dosed 44 weeks, study length 60 weeks",78.5 mg/kg/day
same,TD50,"rat, strain Holtzman albino (Sprague-Dawley derived), females, site: liver, lesion: hemangioendothelial sarcoma, dosed 44 weeks, study length 60 weeks",428 mg/kg/day (inactive)
same,TD50,"rat, strain Holtzman albino (Sprague-Dawley derived), females, site: mammary tissue, wider than the gland, lesion: one or several types, types not named, dosed 44 weeks, study length 60 weeks",5.5 mg/kg/day
same,TD50,"rat, strain Holtzman albino (Sprague-Dawley derived), females, site: small intestine, lesion: adenocarcinoma, dosed 44 weeks, study length 60 weeks",78.5 mg/kg/day
same,TD50,"rat, strain Sprague-Dawley, females, site: all sites, lesion: lymphoblastic lymphoma, dosed 45 weeks, study length 75 weeks",184 mg/kg/day
same,TD50,"rat, strain Sprague-Dawley, females, site: any site (literature study), lesion: several types, types named in the paper, dosed 45 weeks, study length 75 weeks",3.79 mg/kg/day
same,TD50,"rat, strain Sprague-Dawley, females, site: forestomach, lesion: squamous-cell papilloma, dosed 45 weeks, study length 75 weeks",65.4 mg/kg/day
same,TD50,"rat, strain Sprague-Dawley, females, site: kidney/pelvis, lesion: transitional-cell carcinoma, dosed 45 weeks, study length 75 weeks",137 mg/kg/day
same,TD50,"rat, strain Sprague-Dawley, females, site: kidney, lesion: renal-cell carcinoma, dosed 45 weeks, study length 75 weeks",65.4 mg/kg/day
same,TD50,"rat, strain Sprague-Dawley, females, site: kidney, lesion: several types, types named in the paper, dosed 46 weeks, study length 64 weeks",9.96 mg/kg/day
same,TD50,"rat, strain Sprague-Dawley, females, site: kidney, lesion: tubular adenoma, dosed 46 weeks, study length 64 weeks",50.7 mg/kg/day
same,TD50,"rat, strain Sprague-Dawley, females, site: kidney, lesion: tubular-cell adenocarcinoma, dosed 46 weeks, study length 64 weeks",33.9 mg/kg/day
same,TD50,"rat, strain Sprague-Dawley, females, site: liver, lesion: cystadenoma, dosed 46 weeks, study length 64 weeks",43.9 mg/kg/day
same,carcinogen call,"rat, strain Sprague-Dawley, females, site: liver, lesion: one or several types, types not named, dosed 45 weeks, study length 75 weeks",negative (inactive)
same,TD50,"rat, strain Sprague-Dawley, females, site: liver, lesion: several types, types named in the paper, dosed 46 weeks, study length 64 weeks",30.1 mg/kg/day
same,TD50,"rat, strain Sprague-Dawley, females, site: mammary gland, lesion: adenocarcinoma, dosed 45 weeks, study length 75 weeks",3.54 mg/kg/day
same,TD50,"rat, strain Sprague-Dawley, females, site: mammary gland, lesion: adenocarcinoma, dosed 46 weeks, study length 64 weeks",19.5 mg/kg/day
same,TD50,"rat, strain Sprague-Dawley, females, site: mammary gland, lesion: adenofibroma, dosed 46 weeks, study length 64 weeks",52.8 mg/kg/day
same,TD50,"rat, strain Sprague-Dawley, females, site: mammary gland, lesion: several types, types named in the paper, dosed 46 weeks, study length 64 weeks",5.85 mg/kg/day
same,TD50,"rat, strain Sprague-Dawley, males, site: kidney/pelvis, lesion: transitional-cell carcinoma, dosed 46 weeks, study length 64 weeks",69.9 mg/kg/day
same,TD50,"rat, strain Sprague-Dawley, males, site: kidney, lesion: several types, types named in the paper, dosed 46 weeks, study length 64 weeks",5.82 mg/kg/day
same,TD50,"rat, strain Sprague-Dawley, males, site: kidney, lesion: tubular adenoma, dosed 46 weeks, study length 64 weeks",47.6 mg/kg/day
same,TD50,"rat, strain Sprague-Dawley, males, site: kidney, lesion: tubular-cell adenocarcinoma, dosed 46 weeks, study length 64 weeks",19.3 mg/kg/day
same,TD50,"rat, strain Sprague-Dawley, males, site: liver, lesion: cystadenoma, dosed 46 weeks, study length 64 weeks",35.3 mg/kg/day
same,TD50,"rat, strain Sprague-Dawley, males, site: mammary gland, lesion: adenofibroma, dosed 46 weeks, study length 64 weeks",46.2 mg/kg/day
